Test results as given in PubChem BioAssay AID2060888 (Molecular Pharmacology Branch, DTP, NCI, 2025).

Tested on: 695427-040-R-J1-PDC complex spheroid viability
Assay: Anticancer human tumor 695427-040-R-J1-PDC patient-derived colon adenocarcinoma cell line growth inhibition [RAS]
Conditions: for IC50: curve of first compound; for viability, T/C: stronger effect = lower value; active = viability on the fitted dose curve at most 10% of control; inactive = the rest
In short: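 Tumour cells grown as complex spheroids with HUVEC endothelial cells and mesenchymal stem cells, treated with RAS pathway inhibitor combinations. Each agent spans half-log steps from near clinical Cmax, or 10 microM where Cmax is unknown.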

[1] = second compound 0.00316 µM, first compound 0.0316 µM
[2] = second compound 0.00316 µM, first compound 0.1 µM
[3] = second compound 0.00316 µM, first compound 0.316 µM
[4] = second compound 0.00316 µM, first compound 1 µM
[5] = second compound 0.00316 µM, first compound 3.16 µM
[6] = second compound 0.00316 µM, first compound 10 µM
[7] = second compound 0.01 µM, first compound 0.0316 µM
[8] = second compound 0.01 µM, first compound 0.1 µM
[9] = second compound 0.01 µM, first compound 0.316 µM
[10] = second compound 0.01 µM, first compound 1 µM
[11] = second compound 0.01 µM, first compound 3.16 µM
[12] = second compound 0.01 µM, first compound 10 µM
[13] = second compound 0.0316 µM, first compound 0.0316 µM
[14] = second compound 0.0316 µM, first compound 0.1 µM
[15] = second compound 0.0316 µM, first compound 0.316 µM
[16] = second compound 0.0316 µM, first compound 1 µM
[17] = second compound 0.0316 µM, first compound 3.16 µM
[18] = second compound 0.0316 µM, first compound 10 µM
[19] = second compound 0.1 µM, first compound 0.0316 µM
[20] = second compound 0.1 µM, first compound 0.1 µM
[21] = second compound 0.1 µM, first compound 0.316 µM
[22] = second compound 0.1 µM, first compound 1 µM
[23] = second compound 0.1 µM, first compound 3.16 µM
[24] = second compound 0.1 µM, first compound 10 µM
[25] = second compound 0.316 µM, first compound 0.0316 µM
[26] = second compound 0.316 µM, first compound 0.1 µM
[27] = second compound 0.316 µM, first compound 0.316 µM
[28] = second compound 0.316 µM, first compound 1 µM
[29] = second compound 0.316 µM, first compound 3.16 µM
[30] = second compound 0.316 µM, first compound 10 µM
[31] = second compound 1 µM, first compound 0.0316 µM
[32] = second compound 1 µM, first compound 0.1 µM
[33] = second compound 1 µM, first compound 0.316 µM
[34] = second compound 1 µM, first compound 1 µM
[35] = second compound 1 µM, first compound 3.16 µM
[36] = second compound 1 µM, first compound 10 µM
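Note: viability read after seven days of drug exposure.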
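Throughout, for viability, T/C: 100% = DMSO vehicle control viability.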

CC1(O)CCCC1n1c(=O)c(C(F)F)cc2cnc(NC3CCN(S(C)(=O)=O)CC3)nc21 (stereo not given) + C=CC(=O)N1CCN(c2nc(OCC3CCCN3C)nc3c(F)c(-c4nc(N)cc(C)c4C(F)(F)F)c(Cl)cc23)C(C)C1
> 10000 nM: IC50 (second compound 0.00316 µM) | IC50 (second compound 0.01 µM) | IC50 (second compound 0.0316 µM) | IC50 (second compound 0.1 µM) | IC50 (second compound 0.316 µM)
inactive: viability, T/C [1] 95.4% | viability, T/C [2] 93.5% | viability, T/C [3] 101% | viability, T/C [4] 111% | viability, T/C [5] 116% | viability, T/C [6] 59.6% | viability, T/C [7] 109% | viability, T/C [8] 91.8% | viability, T/C [9] 104% | viability, T/C [10] 109% | viability, T/C [11] 124% | viability, T/C [12] 58.1% | viability, T/C [13] 99.5% | viability, T/C [14] 96% | viability, T/C [15] 107% | viability, T/C [16] 110% | viability, T/C [17] 122% | viability, T/C [18] 57.6% | viability, T/C [19] 94.4% | viability, T/C [20] 95.3% | viability, T/C [21] 107% | viability, T/C [22] 112% | viability, T/C [23] 126% | viability, T/C [24] 56.4% | viability, T/C [25] 99.6% | viability, T/C [26] 102% | viability, T/C [27] 97.5% | viability, T/C [28] 120% | viability, T/C [29] 124% | viability, T/C [30] 60.3% | viability, T/C [31] 97.5% | viability, T/C [32] 94.5% | viability, T/C [33] 101% | viability, T/C [34] 118% | viability, T/C [35] 120% | viability, T/C [36] 43.1%
8820 nM: IC50 (second compound 1 µM)

CCC(CC)c1cc(NC2CCC(N)C2)n2nccc2n1 (stereo not given) + C=CC(=O)N1CCN(c2nc(OCC3CCCN3C)nc3c(F)c(-c4nc(N)cc(C)c4C(F)(F)F)c(Cl)cc23)C(C)C1
1950 nM: IC50 (second compound 0.0316 µM) | IC50 (second compound 0.316 µM)
2070 nM: IC50 (second compound 0.01 µM)
1920 nM: IC50 (second compound 0.00316 µM)
1870 nM: IC50 (second compound 0.1 µM)
inactive: viability, T/C [1] 93.3% | viability, T/C [2] 94.8% | viability, T/C [3] 109% | viability, T/C [4] 106% | viability, T/C [5] 9.52% | viability, T/C [6] 12.3% | viability, T/C [7] 105% | viability, T/C [8] 96.1% | viability, T/C [9] 119% | viability, T/C [10] 116% | viability, T/C [11] 15.3% | viability, T/C [12] 11.1% | viability, T/C [13] 105% | viability, T/C [14] 99.4% | viability, T/C [15] 105% | viability, T/C [16] 101% | viability, T/C [17] 13% | viability, T/C [18] 11.9% | viability, T/C [19] 100% | viability, T/C [20] 98.2% | viability, T/C [21] 116% | viability, T/C [22] 94.4% | viability, T/C [23] 13.1% | viability, T/C [24] 12.1% | viability, T/C [25] 89.4% | viability, T/C [26] 95.8% | viability, T/C [27] 105% | viability, T/C [28] 111% | viability, T/C [29] 12.4% | viability, T/C [30] 14.7% | viability, T/C [31] 89.9% | viability, T/C [32] 97.2% | viability, T/C [33] 105% | viability, T/C [34] 90.9% | viability, T/C [35] 7.42% | viability, T/C [36] 13.8%
1800 nM: IC50 (second compound 1 µM)

CCN1CCN(Cc2ccc(Nc3ncc(F)c(-c4cc(F)c5nc(C)n(C(C)C)c5c4)n3)nc2)CC1 + C=CC(=O)N1CCN(c2nc(OCC3CCCN3C)nc3c(F)c(-c4nc(N)cc(C)c4C(F)(F)F)c(Cl)cc23)C(C)C1
> 1000 nM: IC50 (second compound 0.00316 µM) | IC50 (second compound 0.01 µM) | IC50 (second compound 0.0316 µM) | IC50 (second compound 0.1 µM) | IC50 (second compound 0.316 µM) | IC50 (second compound 1 µM)
inactive: viability, T/C (second compound 0.00316 µM, first compound 0.00316 µM) 93% | viability, T/C (second compound 0.00316 µM, first compound 0.01 µM) 88.4% | viability, T/C [1] 88.5% | viability, T/C [2] 88.8% | viability, T/C [3] 101% | viability, T/C [4] 103% | viability, T/C (second compound 0.01 µM, first compound 0.00316 µM) 107% | viability, T/C (second compound 0.01 µM, first compound 0.01 µM) 92.2% | viability, T/C [7] 94.1% | viability, T/C [8] 92.4% | viability, T/C [9] 101% | viability, T/C [10] 108% | viability, T/C (second compound 0.0316 µM, first compound 0.00316 µM) 106% | viability, T/C (second compound 0.0316 µM, first compound 0.01 µM) 96.3% | viability, T/C [13] 95.3% | viability, T/C [14] 91.6% | viability, T/C [15] 109% | viability, T/C [16] 105% | viability, T/C (second compound 0.1 µM, first compound 0.00316 µM) 89% | viability, T/C (second compound 0.1 µM, first compound 0.01 µM) 102% | viability, T/C [19] 90.3% | viability, T/C [20] 92.1% | viability, T/C [21] 107% | viability, T/C [22] 110% | viability, T/C (second compound 0.316 µM, first compound 0.00316 µM) 95.5% | viability, T/C (second compound 0.316 µM, first compound 0.01 µM) 94.3% | viability, T/C [25] 96.7% | viability, T/C [26] 94.7% | viability, T/C [27] 101% | viability, T/C [28] 97% | viability, T/C (second compound 1 µM, first compound 0.00316 µM) 94.8% | viability, T/C (second compound 1 µM, first compound 0.01 µM) 85.6% | viability, T/C [31] 93.7% | viability, T/C [32] 96.6% | viability, T/C [33] 99% | viability, T/C [34] 94.8%

Cc1nc(N2CCC3(CC2)COC(C)C3N)c(CO)nc1Sc1ccnc(N)c1Cl (stereo not given) + C=CC(=O)N1CCN(c2nc(OCC3CCCN3C)nc3c(F)c(-c4nc(N)cc(C)c4C(F)(F)F)c(Cl)cc23)C(C)C1
> 10000 nM: IC50 (second compound 0.00316 µM) | IC50 (second compound 0.01 µM) | IC50 (second compound 0.0316 µM) | IC50 (second compound 0.1 µM) | IC50 (second compound 0.316 µM)
9770 nM: IC50 (second compound 1 µM)
inactive: viability, T/C [1] 87% | viability, T/C [2] 80.8% | viability, T/C [3] 70.6% | viability, T/C [4] 71% | viability, T/C [5] 64.5% | viability, T/C [6] 59.6% | viability, T/C [7] 91.6% | viability, T/C [8] 78.9% | viability, T/C [9] 71.9% | viability, T/C [10] 68.7% | viability, T/C [11] 64.5% | viability, T/C [12] 51.9% | viability, T/C [13] 88.8% | viability, T/C [14] 79% | viability, T/C [15] 71.8% | viability, T/C [16] 67.6% | viability, T/C [17] 63% | viability, T/C [18] 54.9% | viability, T/C [19] 85.1% | viability, T/C [20] 78.7% | viability, T/C [21] 78.6% | viability, T/C [22] 67.5% | viability, T/C [23] 65.2% | viability, T/C [24] 57.7% | viability, T/C [25] 81.1% | viability, T/C [26] 81.4% | viability, T/C [27] 75.4% | viability, T/C [28] 68.6% | viability, T/C [29] 65.3% | viability, T/C [30] 55.4% | viability, T/C [31] 86.8% | viability, T/C [32] 80.3% | viability, T/C [33] 68.6% | viability, T/C [34] 59.9% | viability, T/C [35] 60.5% | viability, T/C [36] 47.5%

NC1c2ccccc2OC12CCN(c1cnc3c(N4CCCc5ncccc54)n[nH]c3n1)CC2 (stereo not given) + C=CC(=O)N1CCN(c2nc(OCC3CCCN3C)nc3c(F)c(-c4nc(N)cc(C)c4C(F)(F)F)c(Cl)cc23)C(C)C1
3210 nM: IC50 (second compound 0.01 µM)
1060 nM: IC50 (second compound 1 µM)
inactive: viability, T/C [1] 72.3% | viability, T/C [2] 68.1% | viability, T/C [3] 63.8% | viability, T/C [4] 57.2% | viability, T/C [5] 52.4% | viability, T/C [6] 44.9% | viability, T/C [7] 78.6% | viability, T/C [8] 73.3% | viability, T/C [9] 63.3% | viability, T/C [10] 59% | viability, T/C [11] 51.6% | viability, T/C [12] 41% | viability, T/C [13] 80.1% | viability, T/C [14] 73.6% | viability, T/C [15] 71.4% | viability, T/C [16] 56.8% | viability, T/C [17] 50.4% | viability, T/C [18] 43.1% | viability, T/C [19] 78.2% | viability, T/C [20] 74.8% | viability, T/C [21] 60.1% | viability, T/C [22] 56.9% | viability, T/C [23] 46.6% | viability, T/C [24] 41.9% | viability, T/C [25] 74.6% | viability, T/C [26] 68.4% | viability, T/C [27] 64.8% | viability, T/C [28] 60.2% | viability, T/C [29] 49.6% | viability, T/C [30] 41.2% | viability, T/C [31] 70.6% | viability, T/C [32] 62.2% | viability, T/C [33] 53.6% | viability, T/C [34] 52% | viability, T/C [35] 47.2% | viability, T/C [36] 36%
2880 nM: IC50 (second compound 0.0316 µM)
2160 nM: IC50 (second compound 0.1 µM)
3370 nM: IC50 (second compound 0.316 µM)
4310 nM: IC50 (second compound 0.00316 µM)
